Measurements from US12685739B2, “Compositions and methods for treating lung injury” (University of Maryland, Baltimore, priority 2020, dated 2026).

Columns and labels:
[1] = test system: LPS-induced mouse model of ARDS; test: LPS-induced mouse model of ARDS; format: in vivo; settings: 10 μg IP 2 hours after LPS and again 5 hours later, 24 hours after LPS, vs vehicle
Procedure: At 24 hours after LPS induction, bronchioalveolar fluid (BALF) was analyzed for neutrophil infiltration, and lung tissues were analyzed for cytokine expression. […].
At 24 hours after LPS induction, bronchioalveolar fluid (BALF) was analyzed for neutrophil infiltration, and lung tissues were analyzed for S100A8/MRP8, which is released by neutrophils. As previously, LPS instilled into the lungs caused a massive invasion of neutrophils into the BALF, as well as dramatic accumulation of the S100A8/MRP8. […]

[2] = test system: human neutrophils; test: MRP8/14 exocytosis from activated human neutrophils, ELISA; format: cell-based; set-up: dose or concentration left out as unconfirmed; settings: co-incubation with glibenclamide, n=6
Procedure: FIG. 9. […] Exocytosis of MRP8/14 from human neutrophils using ELISA was studied. […] Co-immunoprecipitation experiments were performed to determine whether SUR1 and MRP8/14 physically co-associate.

[3] = test system: rat model of VILI with MV alone; test: rat model of VILI with mechanical ventilation alone; settings: 10 μg/kg IP at start of MV, MV 4 hours (10 mL/kg), assessed at 24 hours, vs vehicle
[4] = test system: rat model of ALI induced by IV administration of oleic acid (OA); settings: 75 mg/kg IP 1 hour before OA; cited from earlier work
[5] = test system: mouse model of ventilator-induced lung injury (VILI); settings: 50 mg/kg, VT=15 mL/kg; cited from earlier work
[6] = test system: SUR1-regulated channels; settings: in vitro, low-dose; read-out: EC50, inhibition of SUR1-regulated channels; cited from earlier work
[7] = test system: rat model of ARDS plus MV; test: rat model of ARDS (intratracheal HCl) plus mechanical ventilation; format: in vivo
Procedure: In other cases, a rat model of ARDS was used in which acute lung injury is induced by acid instillation, followed by mechanical ventilation. […] In a second experiment, a conventional rat model of ARDS plus MV was used. Rats were anesthetized and intubated. […] After inducing ALI, rats received MV for 4 hours, as above, except that VT=8 mL/kg. Rats were euthanized at 24 hours. […] MV (VT=8 mL/kg) was continued for 4 hours, following which rats were extubated, recovered from anesthesia and returned to their home cages. Lung function was evaluated at 24 hours. Rats were re-anesthetized. […] Rats were then re-intubated for MV. […] In a subgroup of rats, after completing the 24-hour lung function assessments, rats were euthanized, and the lungs were […] using 5 mL normal saline to obtain bronchioalveolar lavage fluid (BALF). BALF was analyzed for protein.

[8] = test system: murine model of ALI induced by intranasal ovalbumin (OVA); settings: 20 mg/kg, mice pre-sensitized to OVA; cited from earlier work
[9] = 50 μg/kg IP at onset of MV and at 6 hours, 24 hours, vs VEH

COc1ccc(Cl)cc1C(=O)NCCc1ccc(S(=O)(=O)NC(=O)NC2CCCCC2)cc1 [glibenclamide]
IL-6 in lung tissues [1]: significant reduction | MCP-1 in lung tissues [1]: significant reduction | S100A8/MRP8 in lung tissues [1]: significant reduction | neutrophils in BALF [1]: significant reduction | IL-6 in lung tissues ([1]; listed as Glibenclamide): significant reductions | MCP-1 in lung tissues ([1]; listed as Glibenclamide): significant reductions | MRP8/14 exocytosis (release into extracellular media) ([2]; neutrophils stimulated with LPS): significantly reduced | MRP8/14 exocytosis (release into extracellular media) ([2]; neutrophils stimulated with PMA): significantly reduced | pulmonary edema (wet weight/dry weight) [3]: significantly reduced | pulmonary edema (wet weight/dry weight) ([3]; listed as GLIB): significantly decreased pulmonary edema | pulmonary edema (wet weight/dry weight) ([3]; listed as Glibenclamide): significantly decreased pulmonary edema | levels of myeloperoxidase (MPO) and malondialdehyde (MDA) [4]: reduced levels | pulmonary interstitial edema, infiltration of neutrophils and mononuclear cells [4]: significantly alleviated | BALF total protein, neutrophils, IL-1β, IL-6 and KC levels [5]: reduced | pulmonary edema [5]: reduced pulmonary edema | EC50 [6]: 48 nM | dynamic lung compliance, pressure-volume curve [7, 9]: the shift to the right was less pronounced | hemoglobin (Hgb) in lung tissues, immunoblot [7, 9]: less hemorrhagic exudate | hemorrhagic exudates, gross appearance of lungs [7, 9]: reduced hemorrhagic exudates | protein in BALF [7, 9]: the increase was less pronounced | oxygen saturation (sO2), pulse oximetry ([7]; 50 μg/kg IP at onset of MV and at 6 hours, at 24 hours, n=3): 88±4.4% | cellular infiltrates, H&E-stained lung sections ([7]; ARDS with MV, vs VEH): reduced cellular infiltrates | neutrophil invasion, immunohistochemistry for MPO ([7]; lung tissues, vs VEH): less pronounced | quantification of MPO by immunohistochemistry and immunoblot ([7]; lung tissues, vs VEH): significant reduction | NOS2 expression in lung tissues ([7]; vs VEH): attenuated | TNF expression in lung tissues ([7]; vs VEH): attenuated | Th2 cytokines IL-5, IL-4 and IL-13 in BALF [8]: significantly reduced
